The numbers were not newly measured in US20060073224A1, “Method of preparing Dioscorea tincture and uses thereof” (Omni Research Technology, priority 2004, published 2006), which cites them from elsewhere.

The conditions of this data set: purified crystalline powder.

`C[C@@H]1CC[C@@]2(OC1)O[C@H]1C[C@H]3[C@@H]4CC=C5C[C@@H](O)CC[C@]5(C)[C@H]4CC[C@]3(C)[C@H]1[C@@H]2C` [diosgenin]: the insolubility in alcohol entry is listed as “about 0.2%”.
